Measurements published in EP0594651B1, “DRIED BLOOD CELLS AND METHOD OF PREPARATION” (QUADRANT HOLDINGS CAMBRIDGE LIMITED, priority 1991, dated 1993).

Tests used:
erythrocytes [1] = test: Erythrocytes incubated in an organic osmolyte, freeze-dried, rehydrated in PBS with 40% glucopyranosyl sorbitol; intact erythrocytes counted microscopically (Example 1); format: cell-based; settings: for % Intact Cells: incubated 2 hours at 37°C, freeze-dried; for freeze drying of erythrocytes: result in words
Method: Whole blood was collected by venepuncture into the anticoagulant EDTA (used at a final concentration of 5mM), and then incubated for 2 hours at 37°C in one of the following osmolytes: proline, carnitine and betaine, over a range of concentrations. The samples were then frozen into a thin shell on the walls of the vessel and then placed under vacuum for drying. The vacuum was typically less than 25 µm Hg ([…]), and the samples were held under this vacuum for approxiamtely 16 hours.
The freeze-dried samples were rehydrated by resuspending some of the dry material in an hypertonic solution consisting of phosphate buffered saline (PBS) containing glucopyranosyl sorbitol at a concentration of 40%. The samples were then assesed microscopically to determine the number of intact erythrocytes.

erythrocytes [2] = test: Freeze-dried erythrocytes rehydrated with solution A, then PBS; integrity assessed microscopically (Example 2); format: cell-based; settings: then equivalent amount of PBS
Method: After the dehydrated samples were resuspended fully, an equivalent amount of PBS was added, and the integrity of the erythrocytes were assessed microscopically.

erythrocytes [3] = test: Freeze-dried blood rehydrated with solution A and PBS; intact cells assessed by fluorescein dye exclusion (Example 4); format: cell-based
Method: The solutions were incubated at 37°C for 2 hours and then frozen onto the walls of a […] in a thin shell by first immersing the flask while rotating it, in a mixture of solid carbon dioxide and methylated spirits. […] The blood was dried under this vacuum for at least 16 hours. […] The dry blood was rehydrated with 1 volume of solution A (see Example 2), and when all the dry blood was resuspended, an equivalent volume PBS was added.

red cells = red cells dried in proline plus sugar 10% (w/v), stored at room temperature for 3 months
Method: Fresh blood was withdrawn by venepuncture from healthy volunteers into the anti-coagulant EDTA (final concentration 5mM). The blood was centifuged and then washed 3 to 4 times in a potassium free buffered salt solution which contains the following ingredients: Table 5
The cells were then resuspended finally at 50% and incubated for 60 minutes at 4°C, and aliquots were then dried at ambient temperature (evaporation cooled the samples) under a vacuum of less than 5 x 10^-2 mbar (50 Pa) for approximately 16 hours.
The red cells were dried in aliquots of 250µl and the rehydration was inititated by the addition of 250µl of solution 1 to the dry aliquots. The cells were allowed to rehydrate slowly, and when in solution, 500µl of solution 2 was added. At this stage the cells were viewed under the microscope and the number of apparently intact cells was counted. A further 1 ml of solution 2 was then added and the cells were then centrifuged at 5,220 x g for 5 minutes. The supernatant was removed and the cells were resuspended in solution 2. For typing the red cell antigenic status, an equal volume of the red cells in solution 2 was added to an equal volume of an antibody mixed 1 : 1 with solution 1.
The concentration of each sugar used was 10% (w/v). […]

platelets = test: Freeze-drying of platelets from Platelet Rich Plasma and recovery of whole platelets on rehydration (Example 5); format: cell-based; settings: result in words
Method: Blood was collected into the anti-coagulant, acid-citrate-dextrose, and the mixture then centrifuged at approximately 1100 x g for three minutes to harvest Platelet Rich Plasma.
Aliquots of the Platelet Rich Plasma were then incubated in the presence of varying concentrations of proline, carnitine and trehalose on their own, and proline and carnitine in combination with trehalose, as well as a test sample in 7.5% NaCl. All samples were incubated for 37°C for 2 hours on a slowly moving rotary mixer, before freezing and drying.
The dehydrated samples were rehydrated with either 1 volume of water, or 1 volume of water containing 2% carnitine. […] Results obtained when rehydrating with water in the presence of 2% carnitine were generally about 25% better than those achieved with water alone.

blood cells = test: Vacuum-drying of blood cells in trehalose without organic osmolyte, then rehydration; format: cell-based; settings: result in words; vacuum-drying in the absence of an organic osmolyte

Structure (SMILES) | % Intact Cells (erythrocytes [1]; Final Concentration 5) | % Intact Cells (erythrocytes [1]; Final Concentration 10) | % Intact Cells (erythrocytes [1]; Final Concentration 15) | % Intact Cells (erythrocytes [1]; Final Concentration 20) | freeze drying of erythrocytes (erythrocytes [1]) | % Intact Cells (erythrocytes [2]) | % Intact Cells (erythrocytes [3]) | % apparently intact cells (red cells) | platelets recovered on reconstitution (platelets) | cells on rehydration (blood cells)
C[N+](C)(C)CC(=O)O [Betaine, betaine] | 0% | 35% | < 5% | 0% | – | – | – | – | – | –
C[N+](C)(C)CC(O)CC(=O)[O-] (stereo not drawn) [Carnitine, carnitine] | 0% | < 1% | 75% | 62% | particularly successful | 87% | 70% | – | – | –
O=C(O)[C@@H]1CCCN1 [Proline, proline] | 0% | 62% | 81% | < 1% | particularly successful | 79% | 78% | 67% | – | –
OC[C@H]1O[C@H](O[C@H]2O[C@H](CO)[C@@H](O)[C@H](O)[C@H]2O)[C@H](O)[C@@H](O)[C@@H]1O [trehalose] | – | – | – | – | – | – | – | – | almost exclusively 'ghost' platelets | only a very small percentage of cells
